The record followed here is patent US8148373B2, “Compounds” (AstraZeneca AB, priority 2008, dated 2012).

The target of experiment [1] is T1, Adrenergic β2 (H292 cells) (Homo sapiens, UniProt P07550).
T1 construct: endogenous in cells; host or cells: H292 cells
Kind of experiment: Adrenergic β2 Mediated cAMP Production, single concentration 1 μM. Particulars: percentage of the maximum response generated by 1E-07M formoterol; for activation at 1 µM: NCI-H292, 1 μM compound, read-out: β2 (% effect at 1 μM). It counts as cell-based. The procedure:
The following experimental procedure was used to measure the beta-2% effect at 1 μM for the compounds of Examples 116-263. Adrenergic β2 Mediated cAMP Production Cell Preparation
H292 cells are grown in 225 cm2 flasks incubator at 37° C., 5% CO2 in RPMI medium containing 10% (v/v) FBS (foetal bovine serum) and 2 mM L-glutamine.
Compounds were prepared by an initial first dilution into DMSO to give 1 mM stock concentration. This was followed by a 1 in 10 dilution of the stock concentration (10 μl stock compound+90 μl DMSO) to give 0.1 mM compound.
A compound addition plate was prepared by making a further 1 in 25 dilution in assay buffer (HBSS solution containing 10 mM HEPES pH7.4 and 5 mM glucose) containing 4% dimethylsulfoxide. The final compound concentration in assay is 1 μM.
Adherent H292 cells are removed from tissue culture flasks by treatment with Accutase™ cell detachment solution for 15 minutes. Flasks are incubated for 15 minutes in a humidified incubator at 37° C., 5% CO2. Detached cells are re-suspended in RPMI media (containing 10% (v/v) FBS and 2 mM L-glutamine) at 0.1×10^6 cells per mL. 10000 cells in 100 μL are added to each well of a tissue-culture-treated 96-well plate and the cells incubated overnight in a humidified incubator at 37° C., 5% CO2. The culture media is removed and cells are washed twice with 100 μL assay buffer and replaced with 50 μL assay buffer (HBSS solution containing 10 mM HEPES pH7.4 and 5 mM glucose). Cells are rested at room temperature for 20 minutes after which time 25 μL of rolipram (1.2 mM made up in assay buffer) is added. Cells are incubated with rolipram for 10 minutes after which time 25 μl test compounds are added and the cells are incubated for 60 minutes at room temperature. The final rolipram concentration in the assay is 300 μM and final vehicle concentration is 1% (v/v) dimethylsulphoxide. The reaction is stopped by removing supernatants, washing once with 100 μL assay buffer and replacing with 50 μL lysis buffer. The cell monolayer is frozen at −80° C. for 30 minutes (or overnight).
AlphaScreen™ cAMP Detection
The concentration of cAMP (cyclic adenosine monophosphate) in the cell lysate is determined using AlphaScreen™ methodology. The frozen cell plate is thawed for 20 minutes on a plate shaker then 10 μL of the cell lysate is transferred to a 96-well white plate. 40 μL of mixed AlphaScreen™ detection beads (containing equal volumes of donor beads (pre-incubated with biotinylated cAMP in the dark for 30 minutes) and acceptor beads is added to each well and the plate incubated at room temperature for 3 hours in the dark. The AlphaScreen™ signal is measured using an EnVision spectrophotometer (Perkin-Elmer Inc.) with the recommended manufacturer's settings. Concentration of cAMP produced per well were calculated with reference to the cAMP standard curve determined in the same experiment and expressed as a percentage of the maximum response generated by 1E-07M formoterol.

The target of experiment [2] is T2, human muscarinic acetylcholine M3 receptor (M3-ACh) (Homo sapiens, UniProt P20309).
T2 construct: expressed in transfected cells; host or cells: CHO-K1 (Chinese Hamster Ovary) cell membranes
Briefly: Muscarinic 3 Receptor Binding Assay, % inhibition specific binding at 1 μM. Particulars: 1 μM compound, % inhibition specific [3H]-NMS binding. The procedure:
The following experimental procedure was used to determine the M3% inhibition at 1 μM of the compounds of Examples 116-263.
Muscarinic 3 Receptor Binding Assay
The activity (% inhibition specific binding) of compounds -on the M3 receptor is determined by competition binding of [^3H]N-methyl scopolamine (NMS) to CHO-K1 (Chinese Hamster Ovary) cell membranes expressing the human muscarinic acetylcholine M3 receptor (M3-ACh) in a scintillation proximity assay (SPA) format.
SPA beads are precoated with membranes and then incubated at 2 mg of beads per well with 1 μM compound of the invention, [^3H]NMS at 0.1 nM, quarter Kd (experimentally determined dissociation constant) and assay buffer (20 mM HEPES pH 7.4 containing 5 mM MgCl2). The assay is conducted in a final volume of 200 μL, in the presence of 1% (v/v) dimethyl sulphoxide (DMSO). Total binding of [^3H]NMS is determined in the absence of competing compound and non-specific binding of [^3H]NMS is determined in the presence of 1 μM atropine. The plates are incubated for 16 hours at room temperature and then read on Wallac Microbeta™ using a normalised ^3H protocol. The compound activity at 1 defined as % inhibition specific [^3H]-NMS binding, is determined.

T1 sequence (P07550 whole entry): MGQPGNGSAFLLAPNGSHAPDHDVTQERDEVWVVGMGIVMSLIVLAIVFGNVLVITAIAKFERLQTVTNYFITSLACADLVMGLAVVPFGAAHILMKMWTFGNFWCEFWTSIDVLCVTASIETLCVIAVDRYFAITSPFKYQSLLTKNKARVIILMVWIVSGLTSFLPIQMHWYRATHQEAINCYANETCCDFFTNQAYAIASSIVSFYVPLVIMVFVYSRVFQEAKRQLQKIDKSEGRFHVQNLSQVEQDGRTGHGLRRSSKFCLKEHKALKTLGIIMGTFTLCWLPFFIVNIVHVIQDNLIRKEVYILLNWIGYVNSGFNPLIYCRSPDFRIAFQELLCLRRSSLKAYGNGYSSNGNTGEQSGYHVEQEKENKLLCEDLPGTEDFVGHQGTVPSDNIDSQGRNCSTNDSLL
T2 sequence (P20309 whole entry): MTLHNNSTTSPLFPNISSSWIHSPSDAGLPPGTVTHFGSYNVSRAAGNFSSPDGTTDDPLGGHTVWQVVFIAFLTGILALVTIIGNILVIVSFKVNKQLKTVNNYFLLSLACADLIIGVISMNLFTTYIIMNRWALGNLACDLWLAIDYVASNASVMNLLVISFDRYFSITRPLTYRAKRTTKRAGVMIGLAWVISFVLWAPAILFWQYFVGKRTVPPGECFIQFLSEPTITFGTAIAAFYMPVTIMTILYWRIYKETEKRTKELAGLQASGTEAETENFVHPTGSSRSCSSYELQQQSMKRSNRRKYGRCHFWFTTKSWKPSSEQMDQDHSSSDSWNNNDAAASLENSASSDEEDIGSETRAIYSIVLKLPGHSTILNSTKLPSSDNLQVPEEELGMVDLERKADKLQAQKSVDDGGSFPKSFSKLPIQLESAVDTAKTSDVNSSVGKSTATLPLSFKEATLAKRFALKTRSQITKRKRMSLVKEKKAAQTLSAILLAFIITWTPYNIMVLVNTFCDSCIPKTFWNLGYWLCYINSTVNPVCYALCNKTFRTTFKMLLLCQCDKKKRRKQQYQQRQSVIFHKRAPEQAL

Regarding `Cc1sccc1C(=O)N1CCOC2(CCN(CCCCCCCCCNC[C@H](O)c3ccc(O)c4[nH]c(=O)sc34)CC2)C1` [Example 205, (R)-4-hydroxy-7-(1-hydroxy-2-(9-(4-(2-methylthiophene-3-carbonyl)-1-oxa-4,9-diazaspiro[5.5]undecan-9-yl)nonylamino)ethyl)benzo[d]thiazol-2(3H)-one], in experiment [1], the activation at 1 µM worked out at 85%. Moreover, the inhibition (as a rule, the percentage by which the read-out fell short of the control) at 1 µM in experiment [2] was 91%.
Taken in the same sequence, the figures for `O=C(CCc1cccs1)N1CCOC2(CCN(CCOc3ccc(CNC[C@H](O)c4ccc(O)c5[nH]c(=O)sc45)cc3)CC2)C1` [Example 248, (R)-4-hydroxy-7-(1-hydroxy-2-(4-(2-(4-(3-(thiophen-2-yl)propanoyl)-1-oxa-4,9-diazaspiro[5.5]undecan-9-yl)ethoxy)benzylamino)ethyl) benzo[d]thiazol-2(3H)-one] were 70% and 44%.
As for `Cc1cc(C(=O)N2CCOC3(CCN(CCOc4ccc(CNC[C@H](O)c5ccc(O)c6[nH]c(=O)sc56)cc4)CC3)C2)sc1C` [Example 263], the “β2 (% effect at 1 μM)” value in experiment [1] (1 μM compound) is on record as 74%. Also, the “M3 (% inhibition at 1 μM)” value in experiment [2] was determined as 37%.
In the case of `Cc1cc(CC(=O)N2CCOC3(CCN(CCOc4ccc(CNC[C@H](O)c5ccc(O)c6[nH]c(=O)sc56)cc4)CC3)C2)on1` [Example 249, (R)-4-hydroxy-7-(1-hydroxy-2-(4-(2-(4-(2-(3-methylisoxazol-5-yl)acetyl)-1-oxa-4,9-diazaspiro[5.5]undecan-9-yl)ethoxy)benzylamino)ethyl) benzo[d]thiazol-2(3H)-one], the activation at 1 µM in experiment [1] was found to be 76%. Further, the inhibition at 1 µM in experiment [2] was determined as 31%.
Taken in the same sequence, the figures for `O=C(COCc1ccccc1)N1CCOC2(CCN(CCOc3ccc(CNC[C@H](O)c4ccc(O)c5[nH]c(=O)sc45)cc3)CC2)C1` [Example 244, (R)-7-(2-(4-(2-(4-(2-(benzyloxy)acetyl)-1-oxa-4,9-diazaspiro[5.5]undecan-9-yl)ethoxy)benzylamino)-1-hydroxyethyl)-4-hydroxy-benzo[d]thiazol-2(3H)-one] were 60% and 48%.
`O=C(c1ccc(Cl)s1)N1CCOC2(CCN(CCOc3ccc(CNC[C@H](O)c4ccc(O)c5[nH]c(=O)sc45)cc3)CC2)C1` [Example 231, (R)-7-(2-(4-(2-(4-(5-chlorothiophene-2-carbonyl)-1-oxa-4,9-diazaspiro[5.5]undecan-9-yl)ethoxy)benzylamino)-1-hydroxyethyl)-4-hydroxybenzo[d] thiazol-2(3H)-one]: in experiment [1], the activation at 1 µM turned out to be 53%. Besides, 1 µM produced 91% inhibition in experiment [2].
Regarding `O=C(CCn1cncn1)N1CCOC2(CCN(Cc3cc(F)cc(CCNC[C@H](O)c4ccc(O)c5[nH]c(=O)sc45)c3)CC2)C1` [Example 164, (R)-7-(2-(3-((4-(3-(1H-1,2,4-triazol-1-yl)propanoyl)-1-oxa-4,9-diazaspiro[5.5]undecan-9-yl)methyl)-5-fluorophenethylamino)-1-hydroxyethyl)-4-hydroxybenzo[d]thiazol-2(3H)-one], the activation at 1 µM in experiment [1] came to 99%. The inhibition at 1 µM in experiment [2] was 35%.
For the compound `Cc1cccc(C(=O)N2CCOC3(CCN(CCCCCCCCCNC[C@H](O)c4ccc(O)c5[nH]c(=O)sc45)CC3)C2)n1` [Example 196, (R)-4-hydroxy-7-(1-hydroxy-2-(9-(4-(6-methylpicolinoyl)-1-oxa-4,9-diazaspiro[5.5]undecan-9-yl)nonylamino)ethyl)benzo[d]thiazol-2(3H)-one], the activation at 1 µM in experiment [1] is 89%. The compound further showed an inhibition at 1 µM in experiment [2] of 95%.
Taken in the same sequence, the figures for `Cc1cccc(C(=O)N2CCOC3(CCN(Cc4cc(F)cc(CCNC[C@H](O)c5ccc(O)c6[nH]c(=O)sc56)c4)CC3)C2)c1` [Example 122, (R)-7-(2-(3-fluoro-5-((4-(3-methylbenzoyl)-1-oxa-4,9-diazaspiro[5.5]undecan-9-yl)methyl)phenethylamino)-1-hydroxyethyl)-4-hydroxybenzo[d]thiazol-2(3H)-one] were 82% and 86%.
Taken in the same sequence, the figures for `Cc1nc2cc(C(=O)N3CCOC4(CCN(Cc5cc(F)cc(CCNC[C@H](O)c6ccc(O)c7[nH]c(=O)sc67)c5)CC4)C3)ccc2n1C` [Example 162, (R)-7-(2-(3-((4-(1,2-dimethyl-1H-benzo[d]imidazole-5-carbonyl)-1-oxa-4,9-diazaspiro[5.5]undecan-9-yl)methyl)-5-fluorophenethylamino)-1-hydroxyethyl)-4-hydroxybenzo[d]thiazol-2(3H)-one] were 91% and 8%.
Taken in the same sequence, the figures for `Cc1ccsc1C(=O)N1CCOC2(CCN(CCCCCCCCCNC[C@H](O)c3ccc(O)c4[nH]c(=O)sc34)CC2)C1` [Example 191, (R)-4-hydroxy-7-(1-hydroxy-2-(9-(4-(3-methylthiophene-2-carbonyl)-1-oxa-4,9-diazaspiro[5.5]undecan-9-yl)nonylamino)ethyl)benzo[d]thiazol-2(3H)-one] were 82% and 94%.
With `Cc1sccc1C(=O)N1CCOC2(CCN(Cc3cc(F)cc(CCNC[C@H](O)c4ccc(O)c5[nH]c(=O)sc45)c3)CC2)C1` [Example 147, (R)-7-(2-(3-fluoro-5-((4-(2-methylthiophene-3-carbonyl)-1-oxa 4,9-diazaspiro[5.5]undecan-9-yl)methyl)phenethylamino)-1-hydroxyethyl)-4-hydroxybenzo[d]thiazol-2(3H)-one], the activation at 1 µM in experiment [1] came out at 102%. The compound also came in with an inhibition at 1 µM in experiment [2] of 66%.
Taken in the same sequence, the figures for `O=C(COCc1ccccc1)N1CCOC2(CCN(CCCCCCCCCNC[C@H](O)c3ccc(O)c4[nH]c(=O)sc34)CC2)C1` [Example 203, (R)-7-(2-(9-(4-(2-(benzyloxy)acetyl)-1-oxa-4,9-diazaspiro[5.5]undecan-9-yl)nonylamino)-1-hydroxyethyl)-4-hydroxybenzo[d]thiazol-2(3H)-one] were 99% and 94%.
Taken in the same sequence, the figures for `Cc1cc(C(=O)N2CCOC3(CCN(Cc4cc(F)cc(CCNC[C@H](O)c5ccc(O)c6[nH]c(=O)sc56)c4)CC3)C2)c(C)s1` [Example 150, (R)-7-(2-(3-((4-(2,5-dimethylthiophene-3-carbonyl)-1-oxa-4,9-diazaspiro[5.5]undecan-9-yl)methyl)-5-fluorophenethylamino)-1-hydroxyethyl)-4-hydroxybenzo[d]thiazol-2(3H)-one] were 100% and 91%.
Taken in the same sequence, the figures for `Cc1nc2ccccn2c1C(=O)N1CCOC2(CCN(Cc3cc(F)cc(CCNC[C@H](O)c4ccc(O)c5[nH]c(=O)sc45)c3)CC2)C1` [Example 152, (R)-7-(2-(3-fluoro-5-((4-(2-methylimidazo[1,2-a]pyridine-3-carbonyl)-1-oxa-4,9-diazaspiro[5.5]undecan-9-yl)methyl)phenethylamino)-1-hydroxyethyl)-4-hydroxybenzo[d]thiazol-2(3H)-one] were 110% and 13%.
